Consider seven compounds from EP1075471B1, “INDOLYL DERIVATIVES AS SEROTONERGIC AGENTS” (Wyeth, priority 1998, dated 1999).

The structures appear in SMILES notation.

One experiment deals with T1, serotonin transporter (Rattus norvegicus, UniProt P31652).
T1 construct: frontal cortical membranes prepared from male S.D. rats; from tissue; host or cells: rat frontal cortex membranes (male Sprague-Dawley rats)
T1 sequence (P31652 whole entry): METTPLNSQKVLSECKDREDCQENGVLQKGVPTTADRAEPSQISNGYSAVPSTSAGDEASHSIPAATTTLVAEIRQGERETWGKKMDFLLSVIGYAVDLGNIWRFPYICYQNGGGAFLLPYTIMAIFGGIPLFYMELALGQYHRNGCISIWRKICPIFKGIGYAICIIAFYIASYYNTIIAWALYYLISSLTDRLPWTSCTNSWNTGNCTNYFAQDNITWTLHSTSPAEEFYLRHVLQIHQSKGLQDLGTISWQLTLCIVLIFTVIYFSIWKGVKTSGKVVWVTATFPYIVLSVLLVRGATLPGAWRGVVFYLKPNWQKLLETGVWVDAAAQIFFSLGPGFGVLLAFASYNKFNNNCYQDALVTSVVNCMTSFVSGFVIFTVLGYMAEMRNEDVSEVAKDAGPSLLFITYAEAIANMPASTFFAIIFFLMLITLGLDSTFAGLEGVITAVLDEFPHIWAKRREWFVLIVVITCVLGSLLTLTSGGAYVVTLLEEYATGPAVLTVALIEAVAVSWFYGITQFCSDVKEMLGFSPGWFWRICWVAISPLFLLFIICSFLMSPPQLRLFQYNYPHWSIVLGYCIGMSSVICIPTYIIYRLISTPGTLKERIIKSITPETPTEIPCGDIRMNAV
In words: 3H-Paroxetine binding to assess affinity for the serotonin transporter.
Conditions: not given
The protocol: The affinity of drugs for the serotonin transporter was determined by assessing the ability of agents to displace specifically bound 3H-paroxetine binding from rat cortical membranes. […] Nonspecific binding was determined using fluoxetine.
^3H-Paroxetine Binding to Assess Affinity of Drugs for the Serotonin Transporter:
Briefly, frontal cortical membranes prepared from male S.D. rats were incubated with ^3H-paroxetine (0.1 nM) for 60 min at 25°C. All tubes also contained either vehicle, test compound (one to eight concentrations), or a saturating concentration of fluoxetine (10 µM) to define […]. All reactions are terminated by the addition of ice cold Tris buffer followed by rapid filtration using a Tom Tech filtration device to separate bound from free ^3H-paroxetine.
The compound `OC(CN1CC=C(c2c[nH]c3ccccc23)CC1)Cn1ccc2cc(F)ccc21` (stereo not shown) [Example 8, 1-(5-Fluoro-indol-1-yl)-3-[4-(1H-indol-3-yl)-3,6-dihydro-2H-pyridin-1-yl]-propan-2-ol] had a Ki of 1.4 nM.

Regarding `OC(CN1CC=C(c2c[nH]c3ccccc23)CC1)Cn1ccc2c(F)cccc21` (stereo not shown) [Example 10, 1-(4-Fluoro-indol-1-yl)-3-[4-(1H-indol-3-yl)-3,6-dihydro-2H-pyridin-1-yl]-propan-2-ol], the affinity corresponds to a Ki of 0.01 nM.

As for `COc1cccc2c1ccn2CC(O)CN1CC=C(c2c[nH]c3ccccc23)CC1` (stereo not shown) [Example 11, 1-[4-(1H-Indol-3-yl)-3,6-dihydro-2H-pyridin-1-yl]-3-(4-methoxy-indol-1-yl)-propan-2-ol], the affinity corresponds to a Ki of 0.04 nM.

In the case of `Cc1nc2ccccc2n1CC(O)CN1CC=C(c2c[nH]c3ccccc23)CC1` (stereo not shown) [Example 13, 1-[4-(1H-Indol-3-yl)-3,6-dihydro-2H-pyridin-1-yl]-3-(2-methyl-benzoimidazol-1-yl)-propan-2-ol], the affinity, expressed as Ki, was 0.4 nM.

Turning to `COc1cccc2c1ccn2C[C@@H](O)CN1CC=C(c2c[nH]c3ccccc23)CC1` [Example 14, (2S)-1-[4-(1H-Indol-3-yl)-3,6-dihydro-2H-pyridin-1-yl]-3-(4-methoxy-indol-1-yl)-propan-2-ol], affinity was put at a Ki of 0.03 nM.

Compound `O[C@@H](CN1CC=C(c2c[nH]c3ccccc23)CC1)Cn1ccc2c(F)cccc21` [Example 15, (2S)-1-(4-Fluoro-indol-1-yl)-3-[4-(1H-indol-3-yl)-3,6-dihydro-2H-pyridin-1-yl]-propan-2-ol] displayed a Ki of 0.3 nM.

The same experiment, now with this note: read-out: Inhibition of [3H]-Paroxetine binding Ki; compounds of formula (1); rat frontal cortical membranes, 3H-paroxetine 0.1 nM, 60 min at 25°C; nonspecific binding with fluoxetine 10 µM.
With `OC(CN1CC=C(c2c[nH]c3ccccc23)CC1)Cn1ccc2ccccc21` (stereo not shown) [Example 12, 1-Indol-1-yl-3-[4-(1H-indol-3-yl)-3,6-dihydro-2H-pyridin-1-yl]-propan-2-ol], the Ki stood at 1.7 nM.
